US20260274855A1, “AMORPHOUS FORM OF ISOQUINOLINE DERIVATIVE” (vTv Therapeutics LLC, priority 2020, published 2026)
Structures can show the parent of a compound that is named as a salt. Where two headings read alike, the source gives them in different places.

Experiments:
Format in all cases: physicochemical
[1] = Solubility in aqueous solutions at various pH's
[2] = Dissolution studies, four-part dissolution test method of Chinese Pharmacopoeia (2015 edition)
Protocol: Dissolution studies were conducted according to the four-part dissolution test method in the Chinese Pharmacopoeia (2015 edition) in the following solvents: methanol, acetic acid, ethanol, 0.1 mol/L HCl, acetonitrile, and 2-methyltetrahydrofuran. The dissolution study method involves weighing a fine powder (after grinding) of solid test product, attempting to dissolve in a proper volume of solvent by strongly shaking for 30 seconds every 5 minutes for 30 minutes, and recording observations after 30 minutes.

[3] = 30-day stability study at 60° C.
Protocol: A 30-day stability study at 60° C. was conducted on a sample of material obtained from the method of Example 3.

[4] = 3 month stability study at 25° C. ± 2° C. and 60% RH
Protocol: A 3-month stability study was conducted at 25° C.±2° C. and 60% relative humidity.

[5] = Stability study at 40° C. and 100% RH for 7 days
Protocol: The stability of crystal form B of OAD2 hydrochloride and the amorphous form of OAD2 dihydrochloride was tested under conditions of 40° C./100% RH for 1 week.

[6] = Hygroscopicity study, DVS test (25° C., 80% RH)
Protocol: Dynamic moisture adsorption (DVS) curves were collected on DVS Intrinsic of Surface Measurement Systems (SMS). The relative humidity at 25° C. was corrected with the deliquescent points of LiCl, Mg(NO3)2 and KCl.

[7] = Month 0, listed as Ex. 3, dihydrochloride salt
[8] = Month 0, listed as Ex. 4, dihydrochloride salt
[9] = Month 0, listed as Ex. 5, dihydrochloride salt
[10] = Month 1, listed as Ex. 3, dihydrochloride salt
[11] = Month 1, listed as Ex. 4, dihydrochloride salt
[12] = Month 1, listed as Ex. 5, dihydrochloride salt
[13] = Month 2, listed as Ex. 3, dihydrochloride salt
[14] = Month 2, listed as Ex. 4, dihydrochloride salt
[15] = Month 2, listed as Ex. 5, dihydrochloride salt
[16] = Month 3, listed as Ex. 3, dihydrochloride salt
[17] = Month 3, listed as Ex. 4, dihydrochloride salt
[18] = Month 3, listed as Ex. 5, dihydrochloride salt

Which results are given for CC[C@@H](c1ccccc1)N1Cc2cc3c(cc2C[C@H]1C(=O)N[C@@H](Cc1ccc(-c2ccnc(C)c2C)cc1)C(=O)O)OC[C@H](c1ccc(OCc2ccc(Cl)c(Cl)c2)cc1)O3 [OAD2 dihydrochloride, (S)-2-(3S,8S)-3-(4-(3,4-dichlorobenzyloxy)phenyl-7-((S)-1-phenylpropyl)-2,3,6,7,8,9-hexahydro-[1,4]-dioxino[2,3-g]isoquinolin-8-ylformylamino)-3-(4-(2,3-dimethylpyridin-4-yl)phenyl)propionic acid dihydrochloride salt]?
solubility ([1]; Buffer pH 5): Not detectable; solubility ([1]; aqueous solution, aqueous buffer, thermodynamic from solid, Buffer pH 7, read-out: Solubility): 90 µg/mL; solubility ([1]; aqueous solution, aqueous buffer, thermodynamic from solid, Buffer pH 9, read-out: Solubility): 50 µg/mL; solubility ([1]; aqueous solution, aqueous buffer, thermodynamic from solid, solvent 0.1 NaOH, read-out: Solubility): 17 µg/mL; solubility ([1]; aqueous solution, simulated gastric fluid, thermodynamic from solid, solvent 0.1 HCl, read-out: Solubility): > 51000 µg/mL; solubility ([1]; solvent 0.1 HCl, listed as OAD2 dihydrochloride salt, dihydrochloride salt): >51000 µg/mL; Dissolution ([2]; 0.1 mol/L HCl, about 1 g sample in 9.99 mL, after 30 minutes, listed as 3, dihydrochloride salt): Incomplete; Dissolution ([2]; 0.1 mol/L HCl, about 1 g sample in 9.99 mL, after 30 minutes, listed as 4, dihydrochloride salt): Incomplete; Dissolution ([2]; 0.1 mol/L HCl, about 1 g sample in 9.99 mL, after 30 minutes, listed as 5, dihydrochloride salt): Incomplete; Dissolution ([2]; 0.1 mol/L HCl, about 1 g sample in 9.99 mL, after 30 minutes, listed as amorphous solid of OAD2 dihydrochloride salt, dihydrochloride salt): completely dissolved; Dissolution ([2]; 0.1 mol/L HCl, about 1 g sample in 29.99 mL, after 30 minutes): Complete; Dissolution ([2]; 2-methyl tetrahydrofuran, about 0.01 g sample in 101 mL, after 30 minutes, listed as 3, dihydrochloride salt): Incomplete; Dissolution ([2]; 2-methyl tetrahydrofuran, about 0.01 g sample in 101 mL, after 30 minutes, listed as 4, dihydrochloride salt): Incomplete; Dissolution ([2]; 2-methyl tetrahydrofuran, about 0.01 g sample in 101 mL, after 30 minutes, listed as 5, dihydrochloride salt): Incomplete; Dissolution ([2]; 2-methyl tetrahydrofuran, about 0.01 g sample in 101 mL, after 30 minutes, listed as amorphous solid of OAD2 dihydrochloride salt, dihydrochloride salt): incompletely dissolved; Dissolution ([2]; Acetonitrile, about 0.01 g sample in 101 mL, after 30 minutes, listed as 3, dihydrochloride salt): Incomplete; Dissolution ([2]; Acetonitrile, about 0.01 g sample in 101 mL, after 30 minutes, listed as 4, dihydrochloride salt): Incomplete; Dissolution ([2]; Acetonitrile, about 0.01 g sample in 101 mL, after 30 minutes, listed as 5, dihydrochloride salt): Incomplete; Dissolution ([2]; Acetonitrile, about 0.01 g sample in 101 mL, after 30 minutes, listed as amorphous solid of OAD2 dihydrochloride salt, dihydrochloride salt): incompletely dissolved; Dissolution ([2]; Ethanol, about 1 g sample in 9.99 mL, after 30 minutes, listed as 3, dihydrochloride salt): Incomplete; Dissolution ([2]; Ethanol, about 1 g sample in 9.99 mL, after 30 minutes, listed as 4, dihydrochloride salt): Incomplete; Dissolution ([2]; Ethanol, about 1 g sample in 9.99 mL, after 30 minutes, listed as 5, dihydrochloride salt): Incomplete; Dissolution ([2]; Ethanol, about 1 g sample in 9.99 mL, after 30 minutes, listed as amorphous solid of OAD2 dihydrochloride salt, dihydrochloride salt): completely dissolved; Dissolution ([2]; Ethanol, about 1 g sample in 29.99 mL, after 30 minutes): Complete; Dissolution ([2]; Methanol, about 1 g sample in 9.99 mL, after 30 minutes, listed as 3, dihydrochloride salt): Complete; Dissolution ([2]; Methanol, about 1 g sample in 9.99 mL, after 30 minutes, listed as 4, dihydrochloride salt): Complete; Dissolution ([2]; Methanol, about 1 g sample in 9.99 mL, after 30 minutes, listed as 5, dihydrochloride salt): Complete; Dissolution ([2]; Methanol, about 1 g sample in 9.99 mL, after 30 minutes, listed as amorphous solid of OAD2 dihydrochloride salt, dihydrochloride salt): completely dissolved; Dissolution ([2]; acetic acid, about 10 mL of solvent): completely dissolved; Appearance ([3]; Day 0): Off-white; Moisture Content ([3]; Day 0): 1.6%; Percentage of external standard content ([3]; Day 0): 97.1%; Purity ([3]; Day 0): 99.03%; Solid form ([3]; Day 0): Amorphous; Appearance ([3]; Day 5): Off-white; Moisture Content ([3]; Day 5): 2.7%; Percentage of external standard content ([3]; Day 5): 99.1%; Purity ([3]; Day 5): 98.7%; Solid form ([3]; Day 5): Amorphous; Appearance ([3]; Day 10): Off-white; Moisture Content ([3]; Day 10): 2.4%; Percentage of external standard content ([3]; Day 10): 97.5%; Purity ([3]; Day 10): 98.7%; Solid form ([3]; Day 10): Amorphous; Appearance ([3]; Day 30): Pale-yellow; Moisture Content ([3]; Day 30): 2.5%; Percentage of external standard content ([3]; Day 30): 97.4%; Purity ([3]; Day 30): 97.7%; Solid form ([3]; Day 30): Amorphous; Appearance ([4]; Month 0): Off-white; Solid form ([4]; Month 0): Amorphous; Moisture Content [4, 7]: 1.7%; Percentage of external standard content [4, 7]: 98.1%; Purity [4, 7]: 99.30%; Moisture Content [4, 8]: 2.5%; Percentage of external standard content [4, 8]: 97.1%; Purity [4, 8]: 98.7%; Moisture Content [4, 9]: 1.6%; Percentage of external standard content [4, 9]: 97.1%; Purity [4, 9]: 99.03%; Appearance ([4]; Month 1): Off-white; Solid form ([4]; Month 1): Amorphous; Moisture Content [4, 10]: 3.1%; Percentage of external standard content [4, 10]: 99.0%; Purity [4, 10]: 99.25%; Moisture Content [4, 11]: 4.7%; Percentage of external standard content [4, 11]: 96.8%; Purity [4, 11]: 98.6%; Moisture Content [4, 12]: 3.3%; Percentage of external standard content [4, 12]: 97.2%; Purity [4, 12]: 98.90%; Appearance ([4]; Month 2): Off-white; Solid form ([4]; Month 2): Amorphous; Moisture Content [4, 13]: 3.4%; Percentage of external standard content [4, 13]: 98.7%; Purity [4, 13]: 99.30%; Moisture Content [4, 14]: 3.6%; Percentage of external standard content [4, 14]: 97.6%; Purity [4, 14]: 98.6%; Moisture Content [4, 15]: 4.1%; Percentage of external standard content [4, 15]: 97.8%; Purity [4, 15]: 98.90%; Appearance ([4]; Month 3): Off-white; Solid form ([4]; Month 3): Amorphous; Moisture Content [4, 16]: 3.7%; Percentage of external standard content [4, 16]: 99.8%; Purity [4, 16]: 99.23%; Moisture Content [4, 17]: 4.8%; Percentage of external standard content [4, 17]: 98.2%; Purity [4, 17]: 98.5%; Moisture Content [4, 18]: 4.5%; Percentage of external standard content [4, 18]: 98.7%; Purity [4, 18]: 98.90%; Decrease in purity ([5]; 40° C./100% RH for 1 week): no distinct decrease in purity; HPLC (area %) ([5]; 40° C./100% RH/7 d): 97.51 area %; HPLC (area %) ([5]; Initiation): 98.91 area %; Moisture adsorption rate [6]: 8.3%
